Patent US9840500B2, “Compounds as dual inhibitors of histone methyltransferases and DNA methyltransferases” (FUNDACIÓN PARA LA INVESTIGACIÓN MÉDICA APLICADA, priority 2014, dated 2017)

Tests used:
CEMO-1 = assay: Cell proliferation assay, CEMO-1 (ALL); format: cell-based, human; conditions: Homo sapiens; 48 hours of treatment; Table 3
Experimental: (§1) Cell proliferation was analyzed after 48 hours of in vitro treatment using the CellTiter 96 Aqueous One Solution Cell Proliferation Assay (Promega, Madison, Wis.). This is a colorimetric method for determining the number of viable cells in proliferation.
(§2) For the assay, suspension cells were cultured by triplicate at a density of 1×10^6 cells/ml in 96-well plates (100.000 cells/well, 100 μl/well), except for OCILY-3 and OCILY-10 cell lines which were cultured at a density of 0.5×10^6 cells/ml (50.000 cells/well, 100 μl/well) and for HepG2, Hep3B and PLC/PRF/5 cell ines which were cultured at a density of 3000 cells/well, 100 μl/well). Adherent cells were obtained from 80-90% confluent flasks and 100 μl of cells were seeded at a density of 5000 cells/well in 96-well plates by triplicate. Before addition of the compounds, adherent cells were allowed to attach to the bottom of the wells for 12 hours. In all cases, only the 60 inner wells were used to avoid any border effects.
(§3) After 48 hours of treatment, plates with suspension cells were centrifuged at 800 g for 10 minutes and medium was removed. The plates with adherent cells were flicked to remove medium. Then, cells were incubated with 100 ul/well of medium and 20 ul/well of CellTiter 96 Aqueous One Solution reagent. After 1-3 hours of incubation at 37° C., absorbance was measured at 490 nm in a 96-well plate reader. The background absorbance was measured in wells with only cell line medium and solution reagent. Data was calculated as a percentage of total absorbance of treated cell/absorbance of non treated cells.

human G9a enzyme = target: T1, human G9a enzyme (Homo sapiens, UniProt Q96KQ7); assay: G9a enzyme activity assay (TR-FRET); format: biochemical
T1 sequence (Q96KQ7 1-1210): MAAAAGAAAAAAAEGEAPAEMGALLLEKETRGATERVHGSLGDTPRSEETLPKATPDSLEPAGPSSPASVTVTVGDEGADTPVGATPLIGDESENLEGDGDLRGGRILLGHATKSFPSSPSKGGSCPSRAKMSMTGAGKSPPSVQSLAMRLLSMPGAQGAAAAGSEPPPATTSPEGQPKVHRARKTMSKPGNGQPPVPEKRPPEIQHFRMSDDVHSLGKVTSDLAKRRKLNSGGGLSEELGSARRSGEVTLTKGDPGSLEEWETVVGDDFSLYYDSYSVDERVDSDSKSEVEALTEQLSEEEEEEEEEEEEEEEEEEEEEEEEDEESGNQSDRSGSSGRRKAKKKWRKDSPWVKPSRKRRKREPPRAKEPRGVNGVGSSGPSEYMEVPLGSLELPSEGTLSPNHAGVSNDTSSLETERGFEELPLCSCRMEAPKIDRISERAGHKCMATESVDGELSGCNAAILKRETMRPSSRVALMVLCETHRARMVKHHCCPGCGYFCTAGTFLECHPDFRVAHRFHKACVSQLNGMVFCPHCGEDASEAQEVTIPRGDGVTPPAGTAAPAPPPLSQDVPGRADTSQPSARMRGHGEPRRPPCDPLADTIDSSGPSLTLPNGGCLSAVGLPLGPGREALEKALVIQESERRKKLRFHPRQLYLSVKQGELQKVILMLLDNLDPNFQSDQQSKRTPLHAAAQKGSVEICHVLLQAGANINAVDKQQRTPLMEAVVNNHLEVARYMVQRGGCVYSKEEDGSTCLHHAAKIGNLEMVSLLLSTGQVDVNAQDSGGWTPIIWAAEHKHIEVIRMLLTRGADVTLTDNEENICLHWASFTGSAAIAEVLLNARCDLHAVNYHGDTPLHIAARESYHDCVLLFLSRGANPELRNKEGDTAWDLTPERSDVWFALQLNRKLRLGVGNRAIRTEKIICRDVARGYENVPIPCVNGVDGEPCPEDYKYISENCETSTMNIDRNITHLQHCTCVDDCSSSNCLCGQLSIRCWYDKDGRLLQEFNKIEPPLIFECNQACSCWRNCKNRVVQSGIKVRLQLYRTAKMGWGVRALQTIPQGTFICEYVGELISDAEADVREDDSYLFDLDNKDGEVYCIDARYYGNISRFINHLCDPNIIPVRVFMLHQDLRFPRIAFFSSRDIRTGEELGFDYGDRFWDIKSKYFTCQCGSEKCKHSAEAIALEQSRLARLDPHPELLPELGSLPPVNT
Experimental: The biochemical assay to measure G9a enzyme activity relies on time-resolved fluorescence energy transfer (TR-FRET) between europium cryptate (donor) and XL665 (acceptor). […] The human G9a enzyme expressed in a baculovirus infected Sf9 cell expression system was obtained from BPS Biosciences (Cat. #51001). […] Final percentage of DMSO was 0.5%. • 2 μl of 1 nM G9a enzyme diluted in assay buffer. […] Final concentration 150 nM. • Then, add 5 μl of streptavidin XL665 beads. Final concentration of 16 μM. • Read the plate after 1 hour of incubation at room temperature.
(§4) For each well, fluorescence was measured at 620 nm and 665 nm. A ratio (665 nm/620 nm) was then calculated in order to minimize medium interferences. Positive control was obtained in the presence of the vehicle of the compounds. Negative control was obtained in the absence of G9a enzyme activity. Calculated IC50 values were determined using GraphPrism using 4-parameters inhibition curve.

PLC/PRF/5 = assay: Cell proliferation assay, PLC/PRF/5 (HCC); format: cell-based; conditions: Homo sapiens, 48 hours of treatment, Table 3
Experimental: as §1, §2, §3

HepG2 = assay: Cell proliferation assay, HepG2 (HCC); format: cell-based; conditions: Homo sapiens, 48 hours of treatment, Table 3
Experimental: as §1, §2, §3

Hep3B = assay: Cell proliferation assay, Hep3B (HCC); format: cell-based; conditions: Homo sapiens, 48 hours of treatment, Table 3
Experimental: as §1, §2, §3

OCI-Ly10 = assay: Cell proliferation assay, OCI-Ly10 (ABC-DLBCL); format: cell-based; conditions: Homo sapiens, 48 hours of treatment, Table 3
Experimental: as §1, §2, §3

DNMT1 = DNMT1 (Homo sapiens, UniProt P26358); assay: DNMT1 enzyme activity assay (TR-FRET, EPIgeneous methyltransferase assay); format: biochemical
Experimental: The biochemical assay to measure DNMT1 enzyme activity relies on time-resolved fluorescence energy transfer (TR-FRET) between lumi4-Tb (donor) and d2 (acceptor) using the EPIgeneous methyltransferase assay (CisBio Cat#62SAHPEB). […] TR-FRET signal is inversely proportional to the concentration of SAH, product of DNMT1 enzyme activity, in the sample.
The human DNMT1 was obtained from Reaction Biology Corp. (Cat# DMT-21-124). […] Final percentage of DMSO was 0.5%. • 2 μl of 1 nM DNMT1 enzyme diluted in assay buffer.
as §4

OCI-Ly3 = assay: Cell proliferation assay, OCI-Ly3 (ABC-DLBCL); format: cell-based; conditions: Homo sapiens, 48 hours of treatment, Table 3
Experimental: as §1, §2, §3

LAL-CUN-2 = assay: Cell proliferation assay, LAL-CUN-2 (ALL); format: cell-based; conditions: 48 hours of treatment; Table 3
Experimental: as §1, §2, §3

Sequence of DNMT1 (P26358 whole entry): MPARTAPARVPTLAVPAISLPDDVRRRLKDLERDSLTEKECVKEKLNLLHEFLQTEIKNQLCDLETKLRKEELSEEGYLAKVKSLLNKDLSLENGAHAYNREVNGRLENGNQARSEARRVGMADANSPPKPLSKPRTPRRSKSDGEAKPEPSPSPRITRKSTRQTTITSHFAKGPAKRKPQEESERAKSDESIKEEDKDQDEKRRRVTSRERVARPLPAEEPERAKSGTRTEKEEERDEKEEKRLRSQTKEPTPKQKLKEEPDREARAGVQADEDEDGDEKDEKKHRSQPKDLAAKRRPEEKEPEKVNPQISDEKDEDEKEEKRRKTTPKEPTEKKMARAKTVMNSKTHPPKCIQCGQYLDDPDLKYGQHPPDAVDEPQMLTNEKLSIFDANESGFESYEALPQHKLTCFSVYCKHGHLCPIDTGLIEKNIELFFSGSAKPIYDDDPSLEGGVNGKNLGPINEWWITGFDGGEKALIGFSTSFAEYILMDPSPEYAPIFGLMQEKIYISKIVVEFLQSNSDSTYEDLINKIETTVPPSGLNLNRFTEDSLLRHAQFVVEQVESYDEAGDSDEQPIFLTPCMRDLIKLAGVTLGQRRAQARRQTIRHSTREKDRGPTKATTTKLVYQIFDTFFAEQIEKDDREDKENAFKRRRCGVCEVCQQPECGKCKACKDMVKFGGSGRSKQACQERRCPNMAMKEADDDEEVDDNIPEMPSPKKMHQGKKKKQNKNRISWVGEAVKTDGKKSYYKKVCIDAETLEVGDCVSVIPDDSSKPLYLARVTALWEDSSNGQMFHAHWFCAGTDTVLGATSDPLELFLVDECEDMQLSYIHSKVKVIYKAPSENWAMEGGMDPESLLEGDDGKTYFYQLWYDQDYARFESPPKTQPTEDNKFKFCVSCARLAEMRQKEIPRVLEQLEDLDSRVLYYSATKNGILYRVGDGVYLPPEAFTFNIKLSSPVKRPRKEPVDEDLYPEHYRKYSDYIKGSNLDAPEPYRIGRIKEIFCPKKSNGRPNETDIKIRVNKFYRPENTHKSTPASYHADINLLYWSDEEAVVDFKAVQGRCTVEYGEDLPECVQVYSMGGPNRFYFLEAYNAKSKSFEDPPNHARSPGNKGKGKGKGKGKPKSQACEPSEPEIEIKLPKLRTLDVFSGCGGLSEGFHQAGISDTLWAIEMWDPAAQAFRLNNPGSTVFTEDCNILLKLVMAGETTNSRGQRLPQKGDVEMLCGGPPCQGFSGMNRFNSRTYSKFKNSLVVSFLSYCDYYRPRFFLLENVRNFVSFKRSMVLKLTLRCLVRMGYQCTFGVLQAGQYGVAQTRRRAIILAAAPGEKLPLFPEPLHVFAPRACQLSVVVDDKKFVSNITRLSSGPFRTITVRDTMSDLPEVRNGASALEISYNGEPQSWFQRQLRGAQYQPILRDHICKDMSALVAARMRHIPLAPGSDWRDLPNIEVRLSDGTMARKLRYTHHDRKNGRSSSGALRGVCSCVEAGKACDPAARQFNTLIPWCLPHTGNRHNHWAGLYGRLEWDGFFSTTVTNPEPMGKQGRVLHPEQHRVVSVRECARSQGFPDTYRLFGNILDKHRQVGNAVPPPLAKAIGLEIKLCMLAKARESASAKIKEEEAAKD

For `CCc1ccc(-c2cc(NC3CC4CCC(C3)N4C)c3cc(OC)c(OCCCN4CCCC4)cc3n2)o1` (stereo not drawn) [Compound 3-50], which GI50 (CEMO-1) is on record?
The GI50 was 100 to 1000 nM.

What about the IC50 (human G9a enzyme) of the same compound?
The IC50 was < 100 nM.

What about the GI50 (PLC/PRF/5) of the same compound?
The GI50 was 100 to 1000 nM.

What about the GI50 (HepG2) of the same compound?
Its GI50 is 1000 to 10000 nM.

And the GI50 (Hep3B)?
The GI50 was 1000 to 10000 nM.

What about the GI50 (OCI-Ly10) of the same compound?
The GI50 was 1000 to 10000 nM.

What about the IC50 (DNMT1) of the same compound?
Its IC50 is 100 to 500 nM.

What about the GI50 (OCI-Ly3) of the same compound?
The GI50 was 100 to 1000 nM.

What does the source list for `CCc1ccc(-c2cc(NC3CC4(CCN(C)CC4)C3)c3cc(OC)c(OCCCN4CCCC4)cc3n2)o1` [Compound 5-06, 2-(5-ethyl-2-furyl)-6-methoxy-N-(7-methyl-7-azaspiro[3.5]nonan-2-yl)-7-(3-pyrrolidin-1-ylpropoxy)quinolin-4-amine; 2,2,2-trifluoroacetic acid]?
GI50 (CEMO-1): 100 to 1000 nM; IC50 (human G9a enzyme): < 100 nM; GI50 (PLC/PRF/5): 100 to 1000 nM; GI50 (HepG2): 100 to 1000 nM; GI50 (Hep3B): 100 to 1000 nM; GI50 (OCI-Ly10): 100 to 1000 nM; IC50 (DNMT1): 100 to 500 nM; GI50 (OCI-Ly3): 100 to 1000 nM

Which results are given for `COc1cc2c(NC3CCN(C)CC3)cc(-c3ccc(C)o3)nc2cc1OC1CCN(C)CC1` [Compound 12-02]?
GI50 (CEMO-1): 100 to 1000 nM; GI50 (PLC/PRF/5): 1000 to 10000 nM; GI50 (HepG2): 1000 to 10000 nM; GI50 (Hep3B): 1000 to 10000 nM; GI50 (OCI-Ly10): 100 to 1000 nM; GI50 (OCI-Ly3): 100 to 1000 nM

For `COc1cc2c(NC3CCN(C)CC3)cc(-c3ccc(C)[nH]3)nc2cc1OCCCN1CCCC1` [Compound 3-31], which GI50 (CEMO-1) is on record?
The GI50 was 1000 to 10000 nM.

And the IC50 (human G9a enzyme)?
The IC50 was < 100 nM.

What about the GI50 (LAL-CUN-2) of the same compound?
Its GI50 is ≤ 10000 nM.

What about the GI50 (OCI-Ly10) of the same compound?
The GI50 was 100 to 1000 nM.

And the IC50 (DNMT1)?
The IC50 was 100 to 500 nM.

And the GI50 (OCI-Ly3)?
Its GI50 is 100 to 1000 nM.

How did the GI50 (CEMO-1) turn out when `CCc1ccc(-c2cc(NC3C4CCC3CN(C)C4)c3cc(OC)c(OCCCN4CCCC4)cc3n2)o1` (stereo not drawn) [Compound 3-51] was run?
The GI50 was 100 to 1000 nM.

And the IC50 (human G9a enzyme)?
Its IC50 is < 100 nM.

What about the GI50 (PLC/PRF/5) of the same compound?
Its GI50 is 100 to 1000 nM.

What about the GI50 (HepG2) of the same compound?
Its GI50 is 100 to 1000 nM.

And the GI50 (Hep3B)?
Its GI50 is 100 to 1000 nM.

What about the GI50 (OCI-Ly10) of the same compound?
The GI50 was 100 to 1000 nM.

And the IC50 (DNMT1)?
The IC50 was 100 to 500 nM.

And the GI50 (OCI-Ly3)?
The GI50 was 1000 to 10000 nM.

For `COc1cc2c(NC3CCN(C)CC3)cc(-c3ccccc3)nc2cc1OCCCN1CCCC1` [Compound 3-29], which GI50 (CEMO-1) is on record?
The GI50 was 100 to 1000 nM.

What about the IC50 (human G9a enzyme) of the same compound?
The IC50 was < 100 nM.

And the GI50 (PLC/PRF/5)?
Its GI50 is 1000 to 10000 nM.

And the GI50 (HepG2)?
The GI50 was 1000 to 10000 nM.

And the GI50 (Hep3B)?
The GI50 was 1000 to 10000 nM.

What about the GI50 (OCI-Ly10) of the same compound?
The GI50 was 100 to 1000 nM.

And the IC50 (DNMT1)?
Its IC50 is 1000 to 10000 nM.

And the GI50 (OCI-Ly3)?
Its GI50 is 100 to 1000 nM.

Which results are given for `CCc1ccc(-c2cc(NCC3CCN(C4CC4)CC3)c3cc(OC)c(OCCCN4CCCC4)cc3n2)o1` [Compound 3-49]?
GI50 (CEMO-1): 100 to 1000 nM; IC50 (human G9a enzyme): 100 to 500 nM; GI50 (PLC/PRF/5): 100 to 1000 nM; GI50 (HepG2): 100 to 1000 nM; GI50 (Hep3B): 100 to 1000 nM; GI50 (OCI-Ly10): 100 to 1000 nM; IC50 (DNMT1): 100 to 500 nM; GI50 (OCI-Ly3): < 100 nM

What does the source list for `CCc1ccc(-c2cc(NC3CCN(C4CC4)CC3)c3cc(OC)c(OCCCN4CCCC4)cc3n2)o1` [Compound 3-48]?
GI50 (CEMO-1): 100 to 1000 nM; IC50 (human G9a enzyme): < 100 nM; GI50 (PLC/PRF/5): ≤ 10000 nM; GI50 (HepG2): 1000 to 10000 nM; GI50 (Hep3B): 1000 to 10000 nM; GI50 (OCI-Ly10): 100 to 1000 nM; IC50 (DNMT1): 100 to 500 nM; GI50 (OCI-Ly3): 1000 to 10000 nM

Which results are given for `COc1cc2c(NC3CCN(C)CC3)cc(-c3ccc4occc4c3)nc2cc1OCCCN1CCCC1` [Compound 3-28]?
GI50 (CEMO-1): 1000 to 10000 nM; IC50 (human G9a enzyme): < 100 nM; GI50 (OCI-Ly10): < 100 nM; IC50 (DNMT1): 500 to 1000 nM

`COc1cc2c(NC3CCC34CCN(C)C4)cc(-c3ccc(C)o3)nc2cc1OCCCN1CCCC1` (stereo not drawn) [Compound 5-04] was tested. Which GI50 (LAL-CUN-2) did it give?
The GI50 was 1000 to 10000 nM.

What about the GI50 (OCI-Ly3) of the same compound?
The GI50 was 100 to 1000 nM.
